Test results taken from patent US12617779B2, “Self degradation-type CDK9 inhibitor prodrug and liposome encapsulating same” (Sumitomo Pharma Co., Ltd., priority 2021, dated 2026).

Assay: Evaluation of conversion rate to active form in buffer solution (Experimental Example 1)
Format: physicochemical
Conditions: for Production rate of Alvocidib / Residual rate: 37° C., 25 umol/L in buffer solution; for Stability in buffer solution at pH 5: pH 5, 37° C., up to 2 or 3 hours; for Conversion to Alvocidib at pH 7.4: pH 7.4, 37° C., up to 3 hours
Procedure, shortened: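 Conversion to Alvocidib was followed by HPLC over 3 hours at 37° C, with test compounds at 25 umol/L in 50 mM citrate or phosphate buffers spanning pH 5.0–7.4.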

## COCCN(CC1CCCCN1)C(=O)Oc1cc(O)c2c(=O)cc(-c3ccccc3Cl)oc2c1[C@H]1CCN(C)C[C@H]1O (stereo partly drawn) [Example 12, 2-(2-chlorophenyl)-5-hydroxy-8-[(3S,4R)-3-hydroxy-1-methylpiperidin-4-yl]-4-oxo-4H-1-benzopyran-7-yl (2-methoxyethyl) [(piperidin-2-yl)methyl]carbamate]
pH5.0, 0 hr
  Production rate of Alvocidib: 0.5%
  Residual rate: 80.7%
  Stability in buffer solution at pH 5: stable
  Conversion to Alvocidib at pH 7.4: rapidly converted to Alvocidib
pH5.0, 0.5 hr
  Production rate of Alvocidib: 1.1%
  Residual rate: 80.3%
pH5.0, 1 hr
  Production rate of Alvocidib: 1.5%
  Residual rate: 79.6%
pH5.0, 2 hr
  Production rate of Alvocidib: 2.3%
  Residual rate: 79.6%
pH5.0, 3 hr
  Production rate of Alvocidib: 3.9%
  Residual rate: 77.3%
pH5.5, 0 hr
  Production rate of Alvocidib: 0.5%
  Residual rate: 80.6%
pH5.5, 0.5 hr
  Production rate of Alvocidib: 1.9%
  Residual rate: 79.9%
pH5.5, 1 hr
  Production rate of Alvocidib: 3.8%
  Residual rate: 77.5%
pH5.5, 2 hr
  Production rate of Alvocidib: 6.9%
  Residual rate: 73.8%
pH5.5, 3 hr
  Production rate of Alvocidib: 9.8%
  Residual rate: 71.2%
pH6.0, 0 hr
  Production rate of Alvocidib: 0.6%
  Residual rate: 80.8%
pH6.0, 0.5 hr
  Production rate of Alvocidib: 6.2%
  Residual rate: 75.4%
pH6.0, 1 hr
  Production rate of Alvocidib: 11.0%
  Residual rate: 70.3%
pH6.0, 2 hr
  Production rate of Alvocidib: 22.5%
  Residual rate: 56.2%
pH6.0, 3 hr
  Production rate of Alvocidib: 26.9%
  Residual rate: 54.0%
pH6.5, 0 hr
  Production rate of Alvocidib: 1.0%
  Residual rate: 80.4%
pH6.5, 0.5 hr
  Production rate of Alvocidib: 16.6%
  Residual rate: 63.8%
pH6.5, 1 hr
  Production rate of Alvocidib: 31.8%
  Residual rate: 39.4%
pH6.5, 2 hr
  Production rate of Alvocidib: 40.5%
  Residual rate: 26.2%
pH6.5, 3 hr
  Production rate of Alvocidib: 52.2%
  Residual rate: 13.4%
pH7.0, 0 hr
  Production rate of Alvocidib: 1.7%
  Residual rate: 80.2%
pH7.0, 0.5 hr
  Production rate of Alvocidib: 33.8%
  Residual rate: 35.8%
pH7.0, 1 hr
  Production rate of Alvocidib: 51.2%
  Residual rate: 15.4%
pH7.0, 2 hr
  Production rate of Alvocidib: 60.2%
  Residual rate: 0.0%
pH7.0, 3 hr
  Production rate of Alvocidib: 62.7%
  Residual rate: 0.0%
pH7.4, 0 hr
  Production rate of Alvocidib: 3.9%
  Residual rate: 77.3%
pH7.4, 0.5 hr
  Production rate of Alvocidib: 51.0%
  Residual rate: 10.8%
pH7.4, 1 hr
  Production rate of Alvocidib: 65.9%
  Residual rate: 0.0%
pH7.4, 2 hr
  Production rate of Alvocidib: 67.3%
  Residual rate: 0.0%
pH7.4, 3 hr
  Production rate of Alvocidib: 63.6%
  Residual rate: 0.0%

## CN1CC[C@H](c2c(OC(=O)N(CCC(F)(F)F)CC3CCCCN3)cc(O)c3c(=O)cc(-c4ccccc4Cl)oc23)[C@H](O)C1 (stereo partly drawn) [Example 13, 2-(2-chlorophenyl)-5-hydroxy-8-[(3S,4R)-3-hydroxy-1-methylpiperidin-4-yl]-4-oxo-4H-1-benzopyran-7-yl [(piperidin-2-yl)methyl](3,3,3-trifluoropropyl)carbamate]
pH5.0, 0 hr
  Production rate of Alvocidib: 2.1%
  Residual rate: 82.1%
  Stability in buffer solution at pH 5: stable
  Conversion to Alvocidib at pH 7.4: rapidly converted to Alvocidib
pH5.0, 0.5 hr
  Production rate of Alvocidib: 3.9%
  Residual rate: 81.7%
pH5.0, 1 hr
  Production rate of Alvocidib: 4.9%
  Residual rate: 80.3%
pH5.0, 2 hr
  Production rate of Alvocidib: 6.3%
  Residual rate: 78.0%
pH5.0, 3 hr
  Production rate of Alvocidib: 8.0%
  Residual rate: 76.1%
pH5.5, 0 hr
  Production rate of Alvocidib: 2.5%
  Residual rate: 82.7%
pH5.5, 0.5 hr
  Production rate of Alvocidib: 5.5%
  Residual rate: 79.2%
pH5.5, 1 hr
  Production rate of Alvocidib: 8.6%
  Residual rate: 74.6%
pH5.5, 2 hr
  Production rate of Alvocidib: 13.9%
  Residual rate: 67.1%
pH5.5, 3 hr
  Production rate of Alvocidib: 17.7%
  Residual rate: 61.8%
pH6.0, 0 hr
  Production rate of Alvocidib: 3.3%
  Residual rate: 81.3%
pH6.0, 0.5 hr
  Production rate of Alvocidib: 11.6%
  Residual rate: 69.8%
pH6.0, 1 hr
  Production rate of Alvocidib: 21.6%
  Residual rate: 56.6%
pH6.0, 2 hr
  Production rate of Alvocidib: 33.3%
  Residual rate: 40.2%
pH6.0, 3 hr
  Production rate of Alvocidib: 42.5%
  Residual rate: 28.3%
pH6.5, 0 hr
  Production rate of Alvocidib: 3.7%
  Residual rate: 81.4%
pH6.5, 0.5 hr
  Production rate of Alvocidib: 27.5%
  Residual rate: 47.7%
pH6.5, 1 hr
  Production rate of Alvocidib: 47.7%
  Residual rate: 22.2%
pH6.5, 2 hr
  Production rate of Alvocidib: 56.7%
  Residual rate: 9.9%
pH6.5, 3 hr
  Production rate of Alvocidib: 65.5%
  Residual rate: 2.8%
pH7.0, 0 hr
  Production rate of Alvocidib: 5.4%
  Residual rate: 78.3%
pH7.0, 0.5 hr
  Production rate of Alvocidib: 49.3%
  Residual rate: 18.7%
pH7.0, 1 hr
  Production rate of Alvocidib: 65.9%
  Residual rate: 2.7%
pH7.0, 2 hr
  Production rate of Alvocidib: 65.1%
  Residual rate: 0.4%
pH7.0, 3 hr
  Production rate of Alvocidib: 69.9%
  Residual rate: 0.0%
pH7.4, 0 hr
  Production rate of Alvocidib: 9.2%
  Residual rate: 68.5%
pH7.4, 0.5 hr
  Production rate of Alvocidib: 65.8%
  Residual rate: 2.2%
pH7.4, 1 hr
  Production rate of Alvocidib: 65.5%
  Residual rate: 0.2%
pH7.4, 2 hr
  Production rate of Alvocidib: 68.6%
  Residual rate: 0.0%
pH7.4, 3 hr
  Production rate of Alvocidib: 66.1%
  Residual rate: 0.0%
